The values below come from patent US20180305332A1, “Bispiperidinyl Derivatives as Liver X Receptor Beta Agonists, Compositions, and Their Use” (Merck Sharp & Dohme Corp., priority 2015, published 2018).

For assay [1], the target named is T1, GST tagged LXRbeta LBD (ligand binding domain) (Homo sapiens, UniProt P55055).
T1 construct: purchased Invitrogen pv4658.pps
T1 sequence (P55055 222-460 limits assumed): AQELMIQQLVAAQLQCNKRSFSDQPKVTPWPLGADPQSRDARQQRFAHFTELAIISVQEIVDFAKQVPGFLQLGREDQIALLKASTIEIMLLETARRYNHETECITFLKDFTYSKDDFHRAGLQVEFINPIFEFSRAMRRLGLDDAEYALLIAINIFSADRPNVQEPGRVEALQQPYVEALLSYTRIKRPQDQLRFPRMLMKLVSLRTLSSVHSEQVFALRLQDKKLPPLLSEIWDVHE
Description: LanthaScreen TR-FRET Liver X Receptor Coactivator Assay, LXR beta-LBD. Particulars: relative to reference T0901317; for EC50: Inflection Point (potency), co-activator recruitment, read-out: LXR beta IP; for Emax: activity at max dose (efficacy), read-out: LXR beta act @ max dose (%). In kind it is biochemical. In outline:
(§1)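 Compound-induced coactivator recruitment measured by TR-FRET between a terbium anti-GST antibody bound to the GST-LBD (LXRα or LXRβ, human) and a fluorescein coactivator peptide, after incubation at room temperature. Potency (inflection point) and efficacy (Emax) referenced to T0901317.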

Assay [2] deals with T2, GST tagged LXRalpha LBD (ligand binding domain) (Homo sapiens, UniProt Q13133).
T2 construct: purchased Invitrogen pv4655
T2 sequence (Q13133 209-447 limits assumed): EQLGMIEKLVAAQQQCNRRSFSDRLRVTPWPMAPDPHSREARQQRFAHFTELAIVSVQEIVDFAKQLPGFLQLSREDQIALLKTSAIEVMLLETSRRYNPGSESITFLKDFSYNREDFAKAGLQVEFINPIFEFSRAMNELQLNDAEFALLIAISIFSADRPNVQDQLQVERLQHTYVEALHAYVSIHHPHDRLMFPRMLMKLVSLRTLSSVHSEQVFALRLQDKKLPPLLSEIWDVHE
Description: LanthaScreen TR-FRET Liver X Receptor Coactivator Assay, LXR alpha-LBD. Format: biochemical. Particulars: relative to reference T0901317; for EC50: read-out: LXR alpha IP; for Emax: activity at max dose (efficacy), read-out: LXR alpha act @ max dose (%). The method in brief: as §1
A general note: In TR-FRET formats the signal depends on donor and acceptor labels being close together.

Setting [3] is: Inflection Point (potency), co-activator recruitment.

The structures appear in SMILES notation.

For `O=C(c1ccc(N2CCC(C3CCN(C(=O)[C@](O)(c4ccccc4)C(F)(F)C(F)(F)F)CC3)CC2)cc1Cl)N1CCC[C@H]1CO` [Example E-66, (2R)-1-[1′-(3-chloro-4-{[(2S)-2-(hydroxymethyl)pyrrolidin-1-yl]carbonyl}phenyl)-4,4′-bipiperidin-1-yl]-3,3,4,4,4-pentafluoro-1-oxo-2-phenylbutan-2-ol], the EC50 stood at 12 nM in assay [1] and 211 nM in assay [2] (setting [3]). Further, the results for the Emax in assay [1] and in assay [2] were 126% and 72%, respectively.

On to `CN(C)C(=O)c1ccc(N2CCC(C3CCN(S(=O)(=O)c4ccccc4Cl)CC3)CC2)cc1Cl` [Example A-103, 2-chloro-4-{1′-[(2-chlorophenyl)sulfonyl]-4,4′-bipiperidin-1-yl}-N,N-dimethylbenzamide], for which the EC50 in assay [1] was determined as 16 nM; in assay [2] (setting [3]), 2190 nM. For the same compound, the Emax in assay [1] turned out to be 122%; in assay [2], 54%.

For the compound `CN(C)C(=O)c1ccc(N2CCC(C3CCN(C(=O)C4(c5ccc(O)cc5)CCCC4)CC3)CC2)cc1Cl` [Example A-67, 2-chloro-4-(1′-{[1-(4-hydroxyphenyl)cyclopentyl]carbonyl}-4,4′-bipiperidin-1-yl)-N,N-dimethylbenzamide], in assay [1], the EC50 turned out to be 107 nM. The Emax stood at 75% in assay [1] and 26% in assay [2]. In addition, the “LXR alpha IP (nM)” value in assay [2] (setting [3]) is “NO IP”.

In the case of `CN(C)C(=O)c1ccc(N2CCC(C3CCN(S(=O)(=O)c4ccccc4C(F)(F)F)CC3)CC2)cc1Cl` [Example A-101, 2-chloro-N,N-dimethyl-4-(1′-{[2-(trifluoromethyl)phenyl]sulfonyl}-4,4′-bipiperidin-1-yl)benzamide], the EC50 in assay [1] was found to be 8 nM; in assay [2] (setting [3]), 618 nM. The Emax in assay [1] was found to be 138%; in assay [2], 65%.

Take `CN(C)C(=O)c1ccc(N2CCC(C3CCN(C(=O)C(C)(C)c4ccc(O)cc4)CC3)CC2)cc1Cl` [Example A-58, 2-chloro-4-{1′-[2-(4-hydroxyphenyl)-2-methylpropanoyl]-4,4′-bipiperidin-1-yl}-N,N-dimethylbenzamide]: the EC50 in assay [1] turned out to be 100 nM; in assay [2] (setting [3]), 3690 nM. In addition, the Emax in assay [1] was found to be 112%; in assay [2] it was 59%.

For `O=C(c1c(F)cccc1F)N1CCC(C2CCN(c3ccc(C(=O)N4CCCC4C(F)(F)F)c(Cl)c3)CC2)CC1` (centres unmarked) [Example E-13, 1-(3-chloro-4-{[2-(trifluoromethyl)pyrrolidin-1-yl]carbonyl}phenyl)-1′-[(2,6-difluorophenyl)carbonyl]-4,4′-bipiperidine], the values for the EC50 in assay [1] and in assay [2] (setting [3]) were 473 nM and 2150 nM, respectively. Also, the Emax in assay [1] was found to be 46%; in assay [2], 15%.

As for `CC(C)(C)OC(=O)N1CCC(C2CCN(c3ccc(S(C)(=O)=O)c(Cl)c3)CC2)CC1` [Example D-9, tert-butyl 1′-[3-chloro-4-(methylsulfonyl)phenyl]-4,4′-bipiperidine-1-carboxylate], the EC50 in assay [1] worked out at 124 nM; in assay [2] (setting [3]), 822 nM. For the same compound, the Emax is 81% in assay [1] and 41% in assay [2].

In the case of `COC(=O)[C@@H]1CCCN1C(=O)c1ccc(N2CCC(C3CCN(C(=O)[C@](O)(c4ccccc4)C(F)(F)F)CC3)CC2)cc1Cl` [Example E-22, methyl 1-[(2-chloro-4-{1′-[(2R)-3,3,3-trifluoro-2-hydroxy-2-phenylpropanoyl]-4,4′-bipiperidin-1-yl}phenyl)carbonyl]prolinate], the EC50 was 437 nM in assay [1] and 1670 nM in assay [2] (setting [3]). Besides, the Emax in assay [1] worked out at 81%; in assay [2] it was 18%.

On to `O=C(c1ccc(N2CCC(C3CCN(C(=O)[C@](O)(c4ccccc4)C(F)(F)F)CC3)CC2)cc1Cl)N1CC[C@H](F)C1` [Example E-26, (2R)-3-[1′-(3-chloro-4-{[(3S)-3-fluoropyrrolidin-1-yl]carbonyl}phenyl)-4,4′-bipiperidin-1-yl]-1,1,1-trifluoro-3-oxo-2-phenylpropan-2-ol], for which the EC50 came out at 279 nM in assay [1] and 1450 nM in assay [2] (setting [3]). Moreover, the Emax in assay [1] amounted to 92%; in assay [2] it was 25%.

Take `CC(C)C(O)(C(=O)N1CCC(C2CCN(c3ccc(C(=O)N(C)C)c(Cl)n3)CC2)CC1)C(F)(F)F` (stereo in doubt) [Example B-6, 2-chloro-6-{1′-[(2S)-2-hydroxy-3-methyl-2-(trifluoromethyl)butanoyl]-4,4′-bipiperidin-1-yl}-N,N-dimethylpyridine-3-carboxamide]: the EC50 in assay [1] turned out to be 38 nM; in assay [2] (setting [3]) it was 1670 nM. Also, the figures for the Emax in assay [1] and in assay [2] were 108% and 46%, respectively.

With `COC1CN(C(=O)c2ccc(N3CCC(C4CCN(C(=O)[C@](O)(c5ccccc5)C(F)(F)F)CC4)CC3)cc2Cl)C1` [Example E-35, (2R)-3-(1′-{3-chloro-4-[(3-methoxyazetidin-1-yl)carbonyl]phenyl}-4,4′-bipiperidin-1-yl)-1,1,1-trifluoro-3-oxo-2-phenylpropan-2-ol], the values for the EC50 in assay [1] and in assay [2] (setting [3]) were 364 nM and 2460 nM, respectively. Also, the Emax in assay [1] worked out at 57%; in assay [2], 19%.

For the compound `O=C1CCN(C(=O)c2ccc(N3CCC(C4CCN(C(=O)[C@](O)(c5ccccc5)C(F)(F)F)CC4)CC3)cc2Cl)C1` [Example E-31], the EC50 was 182 nM in assay [1] and 2990 nM in assay [2] (setting [3]). Further, the Emax in assay [1] came to 79%; in assay [2] it was 28%.

With `CN(Cc1ccno1)C(=O)c1ccc(N2CCC(C3CCN(C(=O)[C@](O)(c4ccccc4)C(F)(F)F)CC3)CC2)cc1Cl` [Example E-50, 2-chloro-N-(isoxazol-5-ylmethyl)-N-methyl-4-{1′-[(2R)-3,3,3-trifluoro-2-hydroxy-2-phenylpropanoyl]-4,4′-bipiperidin-1-yl}benzamide], the EC50 in assay [1] was 349 nM; in assay [2] (setting [3]), 1400 nM. Besides, the Emax in assay [1] was 74%; in assay [2] it was 31%.

Regarding `COC(=O)c1ccc(N2CCC(C3CCN(C(=O)OC(C)(C)C)CC3)CC2)nc1Cl` [Example E-1, tert-butyl 1′-[6-chloro-5-(methoxycarbonyl)pyridin-2-yl]-4,4′-bipiperidine-1-carboxylate], the EC50 in assay [1] came out at 237 nM; in assay [2] (setting [3]) it was 857 nM. Also, the results for the Emax in assay [1] and in assay [2] were 36% and 29%, respectively.

For `CS(=O)(=O)c1ccc(N2CCC(C3CCN(C(=O)c4c(F)cccc4F)CC3)CC2)cc1Cl` [Example D-6, 1-[3-chloro-4-(methylsulfonyl)phenyl]-1′-[(2,6-difluorophenyl)carbonyl]-4,4′-bipiperidine], the EC50 in assay [1] was 380 nM; in assay [2] (setting [3]), 772 nM. The values for the Emax in assay [1] and in assay [2] were 49% and 18%, respectively.

On to `CC(C)(C(=O)N1CCC(C2CCN(c3cccc(S(C)(=O)=O)c3)CC2)CC1)c1ccccc1` [Example D-8, 1-(2-methyl-2-phenylpropanoyl)-1′-[3-(methylsulfonyl)phenyl]-4,4′-bipiperidine], for which the results for the EC50 in assay [1] and in assay [2] (setting [3]) were 185 nM and 2490 nM, respectively. In addition, the values for the Emax in assay [1] and in assay [2] were 134% and 64%, respectively.

On to `CN(C)C(=O)c1ccc(N2CCC(C3CCN(C(=O)OC(C)(C)C)CC3)CC2)cc1Cl` [Example A-1, tert-Butyl 1′-(3-chloro-4-(dimethylcarbamoyl)phenyl)-[4,4′-bipiperidine]-1-carboxylate], for which the EC50 was 16 nM in assay [1] and 748 nM in assay [2] (setting [3]). Moreover, the figures for the Emax in assay [1] and in assay [2] were 106% and 76%, respectively.

For `CC(C)C(O)(C(=O)N1CCC(C2CCN(c3ccc(C(=O)N(C)C)c(Cl)c3)CC2)CC1)C1CC1` (centres unmarked) [Example A-110, 2-chloro-4-[1′-(2-cyclopropyl-2-hydroxy-3-methylbutanoyl)-4,4′-bipiperidin-1-yl]-N,N-dimethylbenzmamide], the figures for the EC50 in assay [1] and in assay [2] (setting [3]) were 52 nM and 1040 nM, respectively. Moreover, the Emax in assay [1] worked out at 127%; in assay [2] it was 69%.

Take `CN(C)C(=O)c1ccc(N2CCC(C3CCN(C(=O)C(C)(C)c4cccc(F)c4)CC3)CC2)cc1Cl` [Example A-91, 2-chloro-4-{1′-[2-(3-fluorophenyl)-2-methylpropanoyl]-4,4′-bipiperidin-1-yl}-N,N-dimethylbenzamide]: the EC50 in assay [1] was found to be 147 nM; in assay [2] (setting [3]), 2090 nM. Besides, the Emax turned out to be 112% in assay [1] and 42% in assay [2].

On to `CCN(CC)C(=O)c1ccc(N2CCC(C3CCN(C(=O)C(O)(C(C)C)C(F)(F)F)CC3)CC2)cc1Cl` (centres unmarked) [Example E-9, 2-chloro-N,N-diethyl-4-{1′-[2-hydroxy-3-methyl-2-(trifluoromethyl)butanoyl]-4,4′-bipiperidin-1-yl}benzamide], for which the EC50 in assay [1] was 30 nM; in assay [2] (setting [3]), 114 nM. Also, the Emax in assay [1] was found to be 96%; in assay [2], 49%.
